Key:
Assay in all cases: normalised response (% of control), CellTiter-Glo; higher = more viable cells (100 = DMSO, 0 = benzethonium chloride kill control)
Conditions in all cases: incubation time: 72 h
BT-474 = tested on: BT-474
Outline: (§1)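 Plates were normalised with 0.1 % DMSO as 100 and a positive kill control as 0. Breast cancer cell lines in 20 µl suspension had been seeded into 384-well plates with compound at 5 concentrations in 10-fold steps over a compound-specific 10,000-fold range, incubated 72 h, and read for CellTox Green fluorescence (485/520 nm) followed by CellTiter-Glo luminescence. Each value is the normalised signal at a single concentration.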

BT-549 = tested on: BT-549
Outline: as §1

CAL-120 = tested on: CAL-120
Outline: as §1

CAL-148 = tested on: CAL-148
Outline: as §1

CAL-51 = tested on: CAL-51
Outline: as §1

CAL-85-1 = tested on: CAL-85-1
Outline: as §1

DU-4475 = tested on: DU-4475
Outline: as §1

HCC1143 = tested on: HCC1143
Outline: as §1

HCC1599 = tested on: HCC1599
Outline: as §1

HCC1937 = tested on: HCC1937
Outline: as §1

HDQ-P1 = tested on: HDQ-P1
Outline: as §1

Hs578T = tested on: Hs578T
Outline: as §1

MCF-10A = tested on: MCF-10A
Outline: as §1

MDA-MB-231 = tested on: MDA-MB-231
Outline: as §1

MDA-MB-436 = tested on: MDA-MB-436
Outline: as §1

MDA-MB-453 = tested on: MDA-MB-453
Outline: as §1

MDA-MB-468 = tested on: MDA-MB-468
Outline: as §1

MFM-223 = tested on: MFM-223
Outline: as §1

SK-BR-3 = tested on: SK-BR-3
Outline: as §1

Compound	normalised response (BT-474)	normalised response (BT-549)	normalised response (CAL-120)	normalised response (CAL-148)	normalised response (CAL-51)	normalised response (CAL-85-1)	normalised response (DU-4475)	normalised response (HCC1143)	normalised response (HCC1599)	normalised response (HCC1937)	normalised response (HDQ-P1)	normalised response (Hs578T)	normalised response (MCF-10A)	normalised response (MDA-MB-231)	normalised response (MDA-MB-436)	normalised response (MDA-MB-453)	normalised response (MDA-MB-468)	normalised response (MFM-223)	normalised response (SK-BR-3)
Cn1c(=O)c(F)c(Nc2ccc(I)cc2F)c2c(=O)n(C[C@@H](O)CO)cnc21 [TAK-733] (1 nM)	45.1%	99.2%	95%	105%	86.9%	98.3%	92.4%	103%	102%	98.1%	83.7%	98.6%	83%	108%	98.8%	98.7%	100%	113%	104%
C[C@@]1(C(=O)Nc2ccc(F)nc2)CCCN1c1nc(Nc2cc(C3CC3)n[nH]2)c2cccn2n1 (10 nM)	90.7%	88%	91.2%	87.3%	99.3%	91.6%	99.5%	97.5%	96.1%	95.4%	85.4%	92.4%	67.5%	88.1%	92.5%	92.8%	86.8%	83.4%	71.5%
CN(c1ccccc1CNc1nc(Nc2ccc3c(c2)CC(=O)N3)ncc1C(F)(F)F)S(C)(=O)=O (1 nM)	95.5%	100%	93%	91.6%	96.2%	94.9%	95.9%	93%	98.4%	99.5%	101%	97.8%	96.3%	95.4%	106%	95.4%	90.3%	89.5%	96%
CC(C)(C)c1cc(NC(=O)Nc2ccc(-c3cn4c(n3)sc3cc(OCCN5CCOCC5)ccc34)cc2)no1 [Quizartinib] (1 nM)	118%	98.8%	111%	109%	112%	106%	104%	110%	116%	101%	98.5%	97.2%	110%	106%	104%	104%	104%	111%	56.6%
CN1CCN(c2ccc3nc(-c4c(N)c5c(F)cccc5[nH]c4=O)[nH]c3c2)CC1 [Dovitinib] (10 nM)	102%	91.8%	95.6%	94.9%	77.6%	91.5%	97.8%	102%	102%	101%	96.1%	97.6%	98.3%	98.6%	98.1%	88.4%	97%	95.1%	
Cc1cc(C(C)Nc2ccccc2)c2nc(N3CCOCC3)cc(=O)n2c1 (stereo not drawn) [TGX-221] (1 nM)	93.1%	99.4%	95.8%	95.5%	109%	92.1%	95.2%	93.8%	89.6%	97.6%	96.2%	98.4%	96.5%	92.7%	84%	98.5%	92.8%	101%	97%
CN(c1ccccc1CNc1nc(Nc2ccc3c(c2)CC(=O)N3)ncc1C(F)(F)F)S(C)(=O)=O (10 nM)	92.1%	97%	94.4%	101%	102%	94.6%	94.8%	99.5%	91.4%	97.5%	101%	92%	100%	87.9%	92%	96.6%	84.8%	91.4%	111%
COc1cc(Nc2ncc(F)c(Nc3ccc4c(n3)NC(=O)C(C)(C)O4)n2)cc(OC)c1OC [Tamatinib] (10 nM)	100%	101%	102%	105%	98.3%	103%	106%	108%	95.1%	102%	103%	113%	107%	107%	95.9%	108%	97.6%	111%	100%
COC1=C2C[C@@H](C)C[C@H](OC)[C@H](O)[C@@H](C)/C=C(\C)[C@H](OC(N)=O)[C@@H](OC)/C=C\C=C(/C)C(=O)NC(=CC1=O)C2=O [Geldanamycin] (10 nM)	106%	97.3%	102%	113%	112%	99.6%	105%	101%	101%	99.9%	100%	108%	106%	105%	104%	106%	105%	105%	110%
CC(=O)O[C@H]1C(=O)[C@@]2(C)[C@H]([C@H](OC(=O)c3ccccc3)[C@]3(O)C[C@H](OC(=O)[C@H](O)[C@@H](NC(=O)c4ccccc4)c4ccccc4)C(C)=C1C3(C)C)[C@]1(OC(C)=O)CO[C@@H]1C[C@@H]2O [Paclitaxel] (1 nM)	89.5%	93.1%	91.6%	89.2%	129%	99.5%	92.2%	90.4%	97.8%	94.7%	89.8%	88.8%	81.5%	88.6%	91.4%	92.8%	96.1%	89.5%	
O=c1[nH]c(=O)n([C@H]2C[C@H](O)[C@@H](CO)O2)cc1F [Floxuridine] (10 nM)	102%	100%	99.5%	110%	122%	104%	98.1%	109%	93.1%	98.2%	90.2%	92.3%	105%	105%	92.5%	111%	96.7%	111%	
COc1cccc2c1C(=O)c1c(O)c3c(c(O)c1C2=O)C[C@@](O)(C(C)=O)C[C@@H]3O[C@H]1C[C@H](N)[C@H](O)[C@H](C)O1 [Daunorubicin] (1 nM)	106%	94.2%	96.9%	109%	122%	96.2%	107%	109%	109%	99.9%	104%	112%	107%	105%	101%	108%	105%	108%	
Nc1nccc(-c2c(-c3ccc(F)cc3)ncn2C2CCCCC2)n1 (10 nM)	106%	90.7%	102%	116%	104%	106%	107%	110%	86.8%	100%	102%	107%	111%	100%	95.7%	106%	96%	110%	
C#Cc1cccc(Nc2ncnc3cc(OC)c(OCCCCCCC(=O)NO)cc23)c1 [CUDC-101] (10 nM)	98%	101%	99.8%	87.5%	84.9%	92.6%	99%	99.9%	93.9%	104%	95.8%	96.4%	97.5%	98.1%	105%	103%	101%	100%	
COc1c(C)cnc(Cn2cnc3c(Cl)nc(N)nc32)c1C [BIIB021] (10 nM)	101%	99.6%	99%	94.6%	116%	96.9%	102%	108%	109%	105%	97.5%	97.6%	96.6%	99.3%	101%	102%	102%	102%	
CC(C)C[C@H](NC(=O)[C@H](Cc1ccccc1)NC(=O)c1cnccn1)B(O)O [Bortezomib] (1 nM)	99.2%	98.2%	102%	102%	77.6%	98.8%	101%	94.2%	108%	98.8%	101%	109%	102%	104%	90.8%	97%	95%	103%	
C[C@@H]1CCN(C(=O)CC#N)C[C@@H]1N(C)c1ncnc2[nH]ccc12 [Tofacitinib] (5 nM)	114%	97.2%	95.7%	111%	122%	112%	110%	105%	115%	96.3%	103%	103%	108%	103%	104%	120%	104%	101%	
FC(F)c1nc2ccccc2n1-c1nc(N2CCOCC2)nc(N2CCOCC2)n1 [ZSTK474] (10 nM)	98.2%	95.4%	96.9%	99.7%	75.5%	92.5%	101%	97.6%	105%	99.8%	95%	101%	103%	89.9%	91.3%	101%	100%	100%	
O=c1[nH]cc(F)c(=O)[nH]1 [Fluorouracil] (10 nM)	103%	107%	95.1%	112%	104%	96.1%	110%	121%	99.3%	106%	102%	110%	111%	107%	99.1%	101%	105%	113%	
COc1ccc(C2=N[C@@H](c3ccc(Cl)cc3)[C@@H](c3ccc(Cl)cc3)N2C(=O)N2CCNC(=O)C2)c(OC(C)C)c1 [Nutlin-3] (10 nM)	97.4%	101%	98.3%	102%	86.3%	101%	104%	106%	104%	103%	100%	104%	99.6%	100%	99.9%	100%	105%	103%	
